The supplement of paper PMC10011410
± gives the standard deviation of the averaged measurements.

How the values were obtained:
U-2 OS [1] = test: AUC of culture confluence over time (live-cell imaging) (AUC (confluence % x time)); higher = more confluent culture (less growth inhibition)
Procedure, shortened: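 Live-cell imaging tracked confluence of U-2 OS cells grown in F-12K medium plus 10% FBS. After seeding at 750 cells per well in 384-well plates, cells received compounds by pin tool 24 h later, mostly at 20, 10 and 5 μM, with 0.2% DMSO. Plates stayed at 37 °C and were imaged every 4 h for up to 60 h. Each value is the area under the confluence-versus-time curve.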

U-2 OS [2] = test: cell painting activity score (Mahalanobis distance from DMSO wells); higher = stronger morphological phenotype; conditions: 24 h
Procedure, shortened: (§1)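 In this cell painting assay, roughly 1,500 U-2 OS cells per well in 384-well plates were pin-tool treated at 37 °C for 24 h, typically at six 2-fold steps from 20 μM down to 625 nM. Cells were stained with MitoTracker, concanavalin A, phalloidin, wheat germ agglutinin, Hoechst and SYTO 14, imaged on an Opera Phenix, and analysed in CellProfiler with normalization to same-plate DMSO cells. Reported values are means of four replicate plates, with the activity score defined as the Mahalanobis distance from DMSO wells and cell count defined relative to DMSO wells.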

U-2 OS [3] = test: intracellular GSH:GSSG ratio (calculated); higher = more reduced glutathione pool; conditions: 24 h
Procedure, shortened: (§2)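 Pin-tool treatment of U-2 OS cells began 24 h after seeding at 750 per well in white low-volume 384-well plates, using 20, 10 and 5 μM for most compounds and 0.4% DMSO, for 24 h at 37 °C. For the glutathione plates, GSH/GSSG-Glo reagents were diluted three-fold in PBS, and each plate held GSH standards. Total glutathione, GSSG and viability (CellTiter-Glo) were taken as luminescence on separate plates and are reported relative to vehicle or as a GSH:GSSG ratio after background and row/column correction.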

U-2 OS [4] = test: total intracellular glutathione (GSH + GSSG) relative to DMSO (% of control); higher = more glutathione; conditions: 24 h
Procedure, shortened: as §2

U-2 OS [5] = test: relative cell count vs DMSO (cell painting) (fraction of DMSO control); higher = more cells remaining (less cytotoxic); conditions: 24 h
Procedure, shortened: as §1

U-2 OS [6] = test: cell viability (CellTiter-Glo) relative to DMSO (% of control); higher = more viable; conditions: 24 h
Procedure, shortened: as §2

| SMILES | AUC of culture confluence over time (U-2 OS [1]; 5 µM) | AUC of culture confluence over time (U-2 OS [1]; 10 µM) | AUC of culture confluence over time (U-2 OS [1]; 20 µM) | cell painting activity score (U-2 OS [2]; 0.625 µM) | cell painting activity score (U-2 OS [2]; 1.25 µM) | cell painting activity score (U-2 OS [2]; 2.5 µM) | cell painting activity score (U-2 OS [2]; 5 µM) | cell painting activity score (U-2 OS [2]; 10 µM) | cell painting activity score (U-2 OS [2]; 20 µM) | intracellular GSH:GSSG ratio (U-2 OS [3]; 5 µM) | intracellular GSH:GSSG ratio (U-2 OS [3]; 10 µM) | intracellular GSH:GSSG ratio (U-2 OS [3]; 20 µM) | total intracellular glutathione (U-2 OS [4]; 5 µM) | total intracellular glutathione (U-2 OS [4]; 10 µM) | total intracellular glutathione (U-2 OS [4]; 20 µM) | relative cell count (U-2 OS [5]; 0.625 µM) | relative cell count (U-2 OS [5]; 1.25 µM) | relative cell count (U-2 OS [5]; 2.5 µM) | relative cell count (U-2 OS [5]; 5 µM) | relative cell count (U-2 OS [5]; 10 µM) | relative cell count (U-2 OS [5]; 20 µM) | cell viability (U-2 OS [6]; 5 µM) | cell viability (U-2 OS [6]; 10 µM) | cell viability (U-2 OS [6]; 20 µM) | AUC of culture confluence over time (U-2 OS [1]; 40 µM) | AUC of culture confluence over time (U-2 OS [1]; 80 µM) | cell painting activity score (U-2 OS [2]; 40 µM) | cell painting activity score (U-2 OS [2]; 80 µM) | intracellular GSH:GSSG ratio (U-2 OS [3]; 40 µM) | intracellular GSH:GSSG ratio (U-2 OS [3]; 80 µM) | total intracellular glutathione (U-2 OS [4]; 40 µM) | total intracellular glutathione (U-2 OS [4]; 80 µM) | relative cell count (U-2 OS [5]; 40 µM) | relative cell count (U-2 OS [5]; 80 µM) | cell viability (U-2 OS [6]; 40 µM) | cell viability (U-2 OS [6]; 80 µM) |
| --- | --- | --- | --- | --- | --- | --- | --- | --- | --- | --- | --- | --- | --- | --- | --- | --- | --- | --- | --- | --- | --- | --- | --- | --- | --- | --- | --- | --- | --- | --- | --- | --- | --- | --- | --- | --- |
| C=CC(=O)Nc1cc2c(Nc3ccc(F)c(Cl)c3)ncnc2cc1OCCCN1CCOCC1 | 19.1 | 13.7 | 9.96 | 15.6 | 19.4 | 27.2 | 25.4 | 25.3 | 26.9 | 7.51 | 1.96 | 0.352 | 69.5 ± 4.6 | 11.2 ± 1.2 | 4.36 ± 0.66 | 0.407 | 0.133 | 0.0844 | 0.0662 | 0.0483 | 0.019 | 57.1 ± 4.1 | 6.54 ± 1.9 | 4.85 ± 1.7 |  |  |  |  |  |  |  |  |  |  |  |  |
| Cn1nnnc1SC1=CS(=O)(=O)c2ccccc21 | 19.6 | 16 | 12.1 | 5.5 | 8.76 | 12 | 21.3 | 13.8 | 21.5 | 3.69 | 2.11 | 0.199 | 59.4 ± 4.2 | 85.3 ± 12 | 23.3 ± 3.9 | 0.936 | 0.834 | 0.727 | 0.392 | 0.322 | 0.255 | 54.9 ± 6.7 | 65.2 ± 7.2 | 6.9 ± 1.4 |  |  |  |  |  |  |  |  |  |  |  |  |
| CCCCCCCc1ccc(CCc2cccc(O)c2C(=O)O)cc1 | 41.6 | 34.5 | 31.5 | 4.31 | 3.72 | 4.79 | 5.56 | 4.29 | 6.6 | 21.3 | 17.1 | 15.3 | 93.7 ± 3.8 | 93.1 ± 7.4 | 83.9 ± 4 | 1.05 | 1.11 | 1.12 | 1.11 | 1.11 | 0.741 | 98.6 ± 2.9 | 98.6 ± 4.4 | 94.4 ± 4.6 | 24.6 | 17.9 | 19.1 | 23.3 | 15.7 | 11.3 | 62.5 ± 9.8 | 30.7 ± 11 | 0.307 | 0.365 | 66.6 ± 7.9 | 17.1 ± 8.5 |
| COc1ccc(N2C(=O)CC(Sc3nnc(-c4ccccc4)o3)C2=O)cc1 (stereo not drawn) | 24.5 | 11.3 | 11.9 | 2.96 | 3.59 | 3.44 | 4.49 | 6.07 | 11.5 | 26.4 | 14.5 | 4.1 | 97.4 ± 5.6 | 97.1 ± 17 | 20 ± 8 | 1.1 | 1.07 | 1.16 | 1.08 | 1.1 | 0.796 | 105 ± 6.2 | 91.8 ± 19 | 9.21 ± 6.6 |  |  |  |  |  |  |  |  |  |  |  |  |
| CC(C)C[C@H](NC(=O)[C@H](Cc1ccccc1)NC(=O)c1cnccn1)B(O)O | 16.9 | 15.6 | 15.1 | 28.4 | 29.8 | 29.3 | 30.7 | 31 | 29.8 | 2.45 | 1.97 | 1.1 | 6.2 ± 0.76 | 6.01 ± 0.4 | 6.63 ± 0.68 | 0.186 | 0.172 | 0.149 | 0.129 | 0.131 | 0.125 | 6.79 ± 0.82 | 7.67 ± 1.1 | 7.65 ± 1 |  |  |  |  |  |  |  |  |  |  |  |  |
| O=C(O[C@@H]1Cc2c(O)cc(O)cc2O[C@@H]1c1cc(O)c(O)c(O)c1)c1cc(O)c(O)c(O)c1 | 48.7 | 49.6 | 48.6 | 3.76 | 4.88 | 4.25 | 4.82 | 5.68 | 10.4 | 24.8 | 18.8 | 11.4 | 96 ± 2.7 | 102 ± 5.6 | 63.7 ± 3.8 | 0.966 | 1 | 0.981 | 0.96 | 0.989 | 0.897 | 98.8 ± 3.2 | 97.6 ± 4.7 | 69.1 ± 19 | 41.4 | 28.3 | 4.51 | 14.8 | 14 | 12 | 77.8 ± 5.7 | 53.9 ± 4.4 | 0.843 | 0.466 | 83 ± 14 | 43.2 ± 2.7 |
